Structures are written as SMILES. Bounds are passed on as bounds.

The IC50 is the concentration needed to halve the response being measured. A higher IC50 goes with lower potency.

The first test relates to 293T-HRE-GFP-luc cells. Nature of the test: Cell-based reporter assay for IC50 determinations (HRE-luciferase, hypoxia). The settings on record: 6 h, 6 hrs hypoxia (1% O2), luminescence. Put shortly:
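IC50s come from four-parameter logistic fits of luminescence. Compounds in 1:3 DMSO series were added to 293T-HRE-GFP-luc cells, 30 min normoxia preceding 6 hrs at 1% O2, 37° C; HRE-luciferase signal was then measured with Steadylite Plus reagent.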
(In general: A reporter such as luciferase makes a cellular process visible.)
With `COC(=O)C(C)(C)c1cccc(Cn2cc(-c3nc(-c4ccc(OC(F)(F)F)cc4)no3)ccc2=O)c1` [Example 162, methyl 2-methyl-2-{3-[(2-oxo-5-{3-[4-(trifluoromethoxy)phenyl]-1,2,4-oxadiazol-5-yl}-1,2-dihydropyridin-1-yl)methyl]phenyl}propanoate], the concentration for half-maximal inhibition (IC50) is less than 0.1 µM. Consider `O=c1ccc(-c2nc(-c3ccc(OC(F)(F)F)cc3)no2)cn1Cc1ccnc(N2CCC(O)CC2)c1` [Example 163, 1-{[2-(4-hydroxypiperidin-1-yl)pyridin-4-yl]methyl}-5-{3-[4-(trifluoromethoxy)phenyl]-1,2,4-oxadiazol-5-yl}-1,2-dihydropyridin-2-one], for which the IC50 was less than 0.1 µM. The same measure, in the same setting: then `CCN(CC)S(=O)(=O)c1cccc(Cn2cc(-c3nc(-c4ccc(OC(F)(F)F)cc4)no3)ccc2=O)c1` [Example 164, N,N-diethyl-3-[(2-oxo-5-{3-[4-(trifluoromethoxy)phenyl]-1,2,4-oxadiazol-5-yl}-1,2-dihydropyridin-1-yl)methyl]benzene-1-sulfonamide], with less than 0.1 µM; and `CNS(=O)(=O)c1cccc(Cn2cc(-c3nc(-c4ccc(OC(F)(F)F)cc4)no3)ccc2=O)c1` [Example 165, N-methyl-3-[(2-oxo-5-{3-[4-(trifluoromethoxy)phenyl]-1,2,4-oxadiazol-5-yl}-1,2-dihydropyridin-1-yl)methyl]benzene-1-sulfonamide], with less than 0.1 µM.

As to `O=c1ccc(-c2nc(-c3ccc(OC(F)(F)F)cc3)no2)cn1Cc1cccc(OC2COC2)c1` [Example 166, 1-{[3-(oxetan-3-yloxy)phenyl]methyl}-5-{3-[4-(trifluoromethoxy)phenyl]-1,2,4-oxadiazol-5-yl}-1,2-dihydropyridin-2-one], the IC50 is less than 0.1 µM.

`O=C1CN(c2cccc(Cn3cc(-c4nc(-c5ccc(OC(F)(F)F)cc5)no4)ccc3=O)c2)CCN1` [Example 167, 4-{3-[(2-oxo-5-{3-[4-(trifluoromethoxy)phenyl]-1,2,4-oxadiazol-5-yl}-1,2-dihydropyridin-1-yl)methyl]phenyl}piperazin-2-one] displayed an IC50 of less than 0.1 µM. Turning to `O=c1ccc(-c2nc(-c3ccc(OC(F)(F)F)cc3)no2)cn1Cc1cccc(N2CCCS2(=O)=O)c1` [Example 168, 1-(3-(1,1-dioxidoisothiazolidin-2-yl)benzyl)-5-(3-(4-(trifluoromethoxy)phenyl)-1,2,4-oxadiazol-5-yl)pyridin-2(1H)-one], the IC50 was less than 0.1 µM. Still for that read-out and setting: the figure for `CN1CCN(c2cccc(Cn3cc(-c4nc(-c5ccc(OC(F)(F)F)cc5)no4)ccc3=O)c2)CC1=O` [Example 169, 1-methyl-4-{3-[(2-oxo-5-{3-[4-(trifluoromethoxy)phenyl]-1,2,4-oxadiazol-5-yl}-1,2-dihydropyridin-1-yl)methyl]phenyl}piperazin-2-one] is less than 0.1 µM; for `CS(=O)(=O)CCCOc1cccc(Cn2cc(-c3nc(-c4ccc(OC(F)(F)F)cc4)no3)ccc2=O)c1` [Example 170, 1-{[3-(3-methanesulfonylpropoxy)phenyl]methyl}-5-{3-[4-(trifluoromethoxy)phenyl]-1,2,4-oxadiazol-5-yl}-1,2-dihydropyridin-2-one] it is 0.1 to 1 µM. On the same count and under the same terms, the figure for `O=c1ccc(-c2nc(-c3ccc(OC(F)(F)F)cc3)no2)cn1Cc1cccc(CBr)c1` [Example 171, 1-{[3-(bromomethyl)phenyl]methyl}-5-{3-[4-(trifluoromethoxy)phenyl]-1,2,4-oxadiazol-5-yl}-1,2-dihydropyridin-2-one] is less than 0.1 µM; for `COC(=O)/C=C/c1cccc(Cn2cc(-c3nc(-c4ccc(OC(F)(F)F)cc4)no3)ccc2=O)c1` [Example 172, methyl (2E)-3-{3-[(2-oxo-5-{3-[4-(trifluoromethoxy)phenyl]-1,2,4-oxadiazol-5-yl}-1,2-dihydropyridin-1-yl)methyl]phenyl}prop-2-enoate] it is less than 0.1 µM; for `CS(=O)(=O)C1CCN(c2cccc(Cn3nc(-c4nc(-c5ccc(OC(F)(F)F)cc5)no4)ccc3=O)c2)CC1` [Example 173, 2-{[3-(4-methanesulfonylpiperidin-1-yl)phenyl]methyl}-6-{3-[4-(trifluoromethoxy)phenyl]-1,2,4-oxadiazol-5-yl}-2,3-dihydropyridazin-3-one] it is less than 0.1 µM. Still for that read-out and setting: then `O=c1ccc(-c2nc(-c3ccc(OC(F)(F)F)cc3)no2)nn1Cc1cccc(O)c1` [Example 174, 2-[(3-hydroxyphenyl)methyl]-6-{3-[4-(trifluoromethoxy)phenyl]-1,2,4-oxadiazol-5-yl}-2,3-dihydropyridazin-3-one], with 0.1 to 1 µM; and `CS(=O)(=O)C1CCN(c2cc(Cn3cc(-c4nc(-c5ccc(OC(F)(F)F)cc5)no4)ccc3=O)ccn2)CC1` [Example 175, 1-{[2-(4-methanesulfonylpiperidin-1-yl)pyridin-4-yl]methyl}-5-{3-[4-(trifluoromethoxy)phenyl]-1,2,4-oxadiazol-5-yl}-1,2-dihydropyridin-2-one], with less than 0.1 µM; and `CN1CCN(c2cc(Cn3cc(-c4nc(-c5ccc(OC(F)(F)F)cc5)no4)ccc3=O)ccn2)CC1=O` [Example 176, 1-methyl-4-{4-[(2-oxo-5-{3-[4-(trifluoromethoxy)phenyl]-1,2,4-oxadiazol-5-yl}-1,2-dihydropyridin-1-yl)methyl]pyridin-2-yl}piperazin-2-one], with less than 0.1 µM. For the compound `COCCOc1cccc(Cn2nc(-c3nc(-c4ccc(OC(F)(F)F)cc4)no3)ccc2=O)c1` [Example 177, 2-{[3-(2-methoxyethoxy)phenyl]methyl}-6-{3-[4-(trifluoromethoxy)phenyl]-1,2,4-oxadiazol-5-yl}-2,3-dihydropyridazin-3-one], the IC50 was less than 0.1 µM. On to `O=c1ccc(-c2nc(-c3ccc(OC(F)(F)F)cc3)no2)nn1Cc1cccc(OCCO)c1` [Example 179, 2-{[3-(2-hydroxyethoxy)phenyl]methyl}-6-{3-[4-(trifluoromethoxy)phenyl]-1,2,4-oxadiazol-5-yl}-2,3-dihydropyridazin-3-one], for which the IC50 was less than 0.1 µM. The same measure, in the same setting: the figure for `C#CCCCC(=O)N1CCN(c2cccc(Cn3cc(-c4nc(-c5ccc(OC(F)(F)F)cc5)no4)ccc3=O)c2)CC1` [Example 180] is less than 0.1 µM; for `CC(=O)N1CCN(c2cccc(Cn3cc(-c4nc(-c5ccc(OC(F)(F)F)cc5)no4)ccc3=O)c2)CC1` [Example 182] it is less than 0.1 µM. The same measure, in the same setting: then `CCOC(=O)CN1CCN(c2cccc(Cn3cc(-c4nc(-c5ccc(OC(F)(F)F)cc5)no4)ccc3=O)c2)CC1=O` [Example 183, ethyl 2-(2-oxo-4-{3-[(2-oxo-5-{3-[4-(trifluoromethoxy)phenyl]-1,2,4-oxadiazol-5-yl}-1,2-dihydropyridin-1-yl)methyl]phenyl}piperazin-1-yl)acetate], with less than 0.1 µM; and `CS(=O)(=O)C1CCN(c2cc(Cn3nc(-c4nc(-c5ccc(OC(F)(F)F)cc5)no4)ccc3=O)ccn2)CC1` [Example 184, 2-{[2-(4-methanesulfonylpiperidin-1-yl)pyridin-4-yl]methyl}-6-{3-[4-(trifluoromethoxy)phenyl]-1,2,4-oxadiazol-5-yl}-2,3-dihydropyridazin-3-one], with less than 0.1 µM.

Consider `CN1CCN(c2cccc(Cn3cc(-c4nc(-c5ccc(SC(F)(F)F)cc5)no4)ccc3=O)c2)CC1` [Example 185, 1-{[3-(4-methylpiperazin-1-yl)phenyl]methyl}-5-(3-{4-[(trifluoromethyl)sulfanyl]phenyl}-oxadiazol-5-yl)-1,2-dihydropyridin-2-one], for which the IC50 was less than 0.1 µM. In the case of `CN1CCN(c2cccc(Cn3cc(-c4noc(-c5ccc(S(C)(=O)=O)cc5)n4)ccc3=O)c2)CC1` [Example 186, 5-[5-(4-methanesulfonylphenyl)-1,2,4-oxadiazol-3-yl]-1-{[3-(4-methylpiperazin-1-yl)phenyl]methyl}-1,2-dihydropyridin-2-one], the IC50 was less than 0.1 µM. In turn, `COCCOc1cccc(Cn2cc(-c3noc(-c4ccc(S(=O)(=O)C(F)(F)F)cc4)n3)ccc2=O)c1` [Example 187, 1-{[3-(2-methoxyethoxy)phenyl]methyl}-5-[5-(4-trifluoromethanesulfonylphenyl)-1,2,4-oxadiazol-3-yl]-1,2-dihydropyridin-2-one] had an IC50 of less than 0.1 µM.

As for `CN1CCN(c2cccc(Cn3cc(-c4noc(-c5ccc(S(=O)(=O)C(F)(F)F)cc5)n4)ccc3=O)c2)CC1` [Example 188, 1-{[3-(4-methylpiperazin-1-yl)phenyl]methyl}-5-[5-(4-trifluoromethanesulfonylphenyl)-1,2,4-oxadiazol-3-yl]-1,2-dihydropyridin-2-one], the IC50 is less than 0.1 µM.

Compound `CN1CCN(c2cccc(Cn3cc(-c4noc(-c5ccc(OC(F)F)cc5)n4)ccc3=O)c2)CC1` [Example 189, 5-{5-[4-(difluoromethoxy)phenyl]-1,2,4-oxadiazol-3-yl}-1-{[3-(4-methylpiperazin-1-yl)phenyl]methyl}-1,2-dihydropyridin-2-one] came in with an IC50 of less than 0.1 µM. Same read-out and setting: the figure for `COCCOc1cccc(Cn2cc(-c3noc(-c4ccc(N5CCOC5=O)cc4)n3)ccc2=O)c1` [Example 190, 1-{[3-(2-methoxyethoxy)phenyl]methyl}-5-{5-[4-(2-oxo-1,3-oxazolidin-3-yl)phenyl]-1,2,4-oxadiazol-3-yl}-1,2-dihydropyridin-2-one] is less than 0.1 µM; for `COCCOc1cccc(Cn2cc(-c3noc(-c4ccc(OC)cc4)n3)ccc2=O)c1` [Example 191, 1-{[3-(2-methoxyethoxy)phenyl]methyl}-5-[5-(4-methoxyphenyl)-1,2,4-oxadiazol-3-yl]-1,2-dihydropyridin-2-one] it is less than 0.1 µM. With `COCCOc1cccc(Cn2cc(-c3noc(-c4ccc(C)cc4)n3)ccc2=O)c1` [Example 192, 1-{[3-(2-methoxyethoxy)phenyl]methyl}-5-[5-(4-methylphenyl)-1,2,4-oxadiazol-3-yl]-1,2-dihydropyridin-2-one], the IC50 was less than 0.1 µM.

Staying with this test, now noted: 6 hrs hypoxia (1% O2), luminescence.
With `CC(C)(C)[Si](C)(C)OCCOc1cccc(Cn2nc(-c3nc(-c4ccc(OC(F)(F)F)cc4)no3)ccc2=O)c1` [Example 178, 2-[(3-{2-[(tert-butyldimethylsilyl)oxy]ethoxy}phenyl)methyl]-6-{3-[4-(trifluoromethoxy)phenyl]-1,2,4-oxadiazol-5-yl}-2,3-dihydropyridazin-3-one], the IC50 is 0.1 to 1 µM.

These data come from patent US20140073634A1 (Institute For Applied Cancer Science/The University of …, priority 2012, published 2014).
